Among the test systems are SK-MEL-5 melanoma; HT29 colon; OVCAR-3 ovarian; UACC-62 melanoma; A498 renal; UACC-257 melanoma; ACHN renal; RPMI-8226 leukemia; SW-620 colon; HS 578T breast.
Common to all, as to assay: NCI tumour cell line growth inhibition, 48 h

Each structure is given as a SMILES string. “And” between values parts separate entries of the source, which are not always exact repeats. Identical values can stand only once.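 Method: 48-hour compound exposure of cells in 96-well plates, five concentrations, linear interpolation of endpoints. The concentration for 50% growth inhibition is given as GI50. TGI is the concentration that stops growth completely.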

Turning to `COc1ccc(N=N/C(=N\NC(=O)c2cc(Br)ccc2O)c2ccc(N(CCC#N)CCC#N)cc2OC)cc1`, the GI50 in the assay on SK-MEL-5 melanoma is 56.1 µg/mL; in the assay on HT29 colon it was 40.9 µg/mL; in the assay on OVCAR-3 ovarian it was 51.4 µg/mL; in the assay on UACC-62 melanoma, 94.2 µg/mL; in the assay with A498 renal, > 150 µg/mL; with UACC-257 melanoma it was > 150 µg/mL. The GI50 in the assay with ACHN renal is 85.7 µg/mL; in the assay on RPMI-8226 leukemia, 74.4 µg/mL; in the assay with SW-620 colon, > 150 µg/mL; with HS 578T breast it was 82.5 µg/mL. Also, the TGI was > 150 µg/mL in the assay with SK-MEL-5 melanoma; 118 µg/mL in the assay with HT29 colon; > 150 µg/mL in the assay on OVCAR-3 ovarian; > 150 µg/mL with UACC-62 melanoma; > 150 µg/mL in the assay with A498 renal; > 150 µg/mL in the assay with UACC-257 melanoma. Moreover, the TGI in the assay with ACHN renal, in the assay on RPMI-8226 leukemia, in the assay with SW-620 colon and in the assay with HS 578T breast was > 150 µg/mL throughout.

For `C=C[C@H]1CN2CCc3c([nH]c4c([C@@H]5CCCN5C)c(O)ccc34)[C@@H]2C[C@@H]1C[C@H]1c2[nH]c3ccccc3c2CCN1C`, the TGI with SK-MEL-5 melanoma was 3.02 µM and 3.04 µM; in the assay on HT29 colon, 3.21 µM and 2.95 µM; with OVCAR-3 ovarian it was 2.8 µM and 3.16 µM; in the assay with UACC-62 melanoma, 3.28 µM; with A498 renal it was 3.11 µM and 3.44 µM; in the assay with ACHN renal, 3.39 µM and 3.1 µM and 3.32 µM. In addition, the TGI with HS 578T breast was 3.04 µM and 3.39 µM. In addition, the GI50 was 1.94 µM in the assay on RPMI-8226 leukemia and 2.48 µM in the assay on SW-620 colon.

In the case of `CN1C(=O)/C(=C2\S/C(=N\c3nnc(-c4ccccc4)o3)NC2=O)c2ccccc21`, the GI50 is 90.1 µM in the assay with SK-MEL-5 melanoma; > 100 µM in the assay with HT29 colon; > 100 µM in the assay with OVCAR-3 ovarian; 79.2 µM in the assay on UACC-62 melanoma; 34.4 µM in the assay on UACC-257 melanoma; > 100 µM in the assay with ACHN renal. The GI50 with RPMI-8226 leukemia, with SW-620 colon and in the assay with HS 578T breast was > 100 µM throughout. In addition, the TGI with SK-MEL-5 melanoma, in the assay with HT29 colon, with OVCAR-3 ovarian, in the assay with UACC-62 melanoma, with UACC-257 melanoma and with ACHN renal was > 100 µM throughout. Besides, the TGI in the assay on RPMI-8226 leukemia, in the assay with SW-620 colon and in the assay on HS 578T breast was > 100 µM throughout.

In the case of `O=c1c2ccccc2nc2n1CCc1c-2[nH]c2cc3c(cc12)OCO3`, the TGI was > 25 µM in the assay on SK-MEL-5 melanoma; > 25 µM in the assay with UACC-257 melanoma; > 25 µM in the assay with ACHN renal; > 25 µM in the assay on RPMI-8226 leukemia; > 25 µM with SW-620 colon; 17.5 µM in the assay with HS 578T breast. The GI50 in the assay with HS 578T breast was 5.05 µM.

As to `CS(=O)(=O)O[C@H]1C(=O)N(c2cc3c4ccccc4ccc3c3ccccc23)[C@@H]1c1ccccn1`, the GI50 with SK-MEL-5 melanoma was 0.3 µM; in the assay with OVCAR-3 ovarian, 0.411 µM; in the assay with UACC-62 melanoma, 0.347 µM; in the assay with UACC-257 melanoma, 16.9 µM; with ACHN renal, 0.877 µM; in the assay on RPMI-8226 leukemia, 0.467 µM. Further, the results for the GI50 in the assay with SW-620 colon and in the assay with HS 578T breast were 0.401 µM and 0.428 µM, respectively. Further, the TGI with SK-MEL-5 melanoma is 3.35 µM; in the assay on OVCAR-3 ovarian, 14.9 µM; in the assay with UACC-62 melanoma, > 100 µM; in the assay with UACC-257 melanoma, > 100 µM; in the assay with ACHN renal, > 100 µM; in the assay with RPMI-8226 leukemia, > 100 µM. Also, the TGI in the assay on SW-620 colon and in the assay on HS 578T breast was > 100 µM in each case.

`COC1=CC(c2ccc[nH]2)=N/C1=C\c1[nH]c(C)c(C(=O)Oc2ccccc2)c1C`: the GI50 in the assay with SK-MEL-5 melanoma was 0.0929 µM; in the assay on OVCAR-3 ovarian it was 0.212 µM; in the assay with UACC-62 melanoma it was 0.198 µM; with A498 renal it was 0.648 µM; in the assay on UACC-257 melanoma, 0.545 µM; with ACHN renal, 0.23 µM. In addition, the GI50 in the assay on RPMI-8226 leukemia was 0.284 µM; in the assay with HS 578T breast, 0.205 µM. In addition, the TGI with SK-MEL-5 melanoma worked out at 0.269 µM; in the assay with OVCAR-3 ovarian it was 1.18 µM; in the assay on UACC-62 melanoma, 0.427 µM; with A498 renal it was 2.56 µM; in the assay on UACC-257 melanoma it was 2.41 µM; with ACHN renal it was 1.17 µM. The TGI in the assay with RPMI-8226 leukemia was 2.02 µM; in the assay on HS 578T breast it was 0.828 µM.

As to `COC(=O)[C@H](Cc1ccccc1)NNC(=O)c1csc([C@@H](C[C@H](C(C)C)N(C)C(=O)[C@@H](NC(=O)[C@H]2CCCCN2C)C2CC2)OC(C)=O)n1`, the TGI is 0.51 µM and 2.26 µM with SK-MEL-5 melanoma; 25 µM and > 100 µM in the assay with HT29 colon; 25 µM in the assay on UACC-62 melanoma; > 100 µM with UACC-257 melanoma; 25 µM and > 100 µM in the assay with ACHN renal; 25 µM and > 100 µM in the assay on RPMI-8226 leukemia. In addition, the TGI is 25 µM and > 100 µM in the assay with SW-620 colon; > 100 µM in the assay with HS 578T breast. For the same molecule, the GI50 with OVCAR-3 ovarian is 0.00213 µM; in the assay on UACC-62 melanoma it was 0.0176 µM and 0.0025 µM.

As to `O=C1Nc2ccc(O)cc2/C1=C\c1ccncc1`, the GI50 in the assay with SK-MEL-5 melanoma is 15.5 µM; in the assay on OVCAR-3 ovarian it was 13.3 µM; with UACC-62 melanoma it was 12.2 µM; with A498 renal, 30.5 µM; in the assay on UACC-257 melanoma, 13.2 µM; in the assay with ACHN renal, 11.7 µM. Further, the GI50 is 34.1 µM in the assay on RPMI-8226 leukemia, 25.5 µM in the assay with SW-620 colon and 29.2 µM with HS 578T breast. Besides, the TGI with SK-MEL-5 melanoma worked out at 38.1 µM; in the assay with OVCAR-3 ovarian, 41 µM; in the assay on UACC-62 melanoma it was 26.4 µM; with A498 renal it was 49.9 µM; in the assay with UACC-257 melanoma it was 33.3 µM; in the assay on ACHN renal, 27.9 µM. In addition, the figures for the TGI with RPMI-8226 leukemia, in the assay on SW-620 colon and with HS 578T breast were > 100 µM, 58.3 µM and 97.3 µM, respectively.

With `COc1ccc(/C(=C/c2ccc3ccccc3c2)c2nn[nH]n2)cc1OC`, the GI50 was 4.68 µM with SK-MEL-5 melanoma; 2.69 µM with HT29 colon; 1.69 µM in the assay on OVCAR-3 ovarian; 0.867 µM in the assay on UACC-62 melanoma; 56.6 µM in the assay with UACC-257 melanoma; 11.3 µM with ACHN renal. Besides, the GI50 with RPMI-8226 leukemia was 4.02 µM; in the assay with SW-620 colon it was 1.36 µM; in the assay on HS 578T breast, 2.23 µM. Further, the TGI with SK-MEL-5 melanoma was 23.8 µM; in the assay with HT29 colon, 21.6 µM; in the assay with OVCAR-3 ovarian, 7.87 µM; in the assay with UACC-62 melanoma, > 100 µM; in the assay with UACC-257 melanoma it was > 100 µM; in the assay on ACHN renal, > 100 µM. The TGI in the assay with RPMI-8226 leukemia was > 100 µM; in the assay on SW-620 colon, > 100 µM; in the assay with HS 578T breast, 53.6 µM.

Source of the values: PubChem BioAssay (NCI).
